Results published in patent US20220233556A1, “COMPOSITIONS AND METHODS FOR TREATING OPHTHALMIC CONDITIONS” (Medicon Pharmaceuticals, Inc., priority 2017, published 2022).

Tests used:
TGF-β = TGF-β levels in culture medium of human conjunctival cells (ELISA); type: cell-based
Procedure: FIGS. 7A and 7B illustrate that PS suppresses cytokine levels in cultured conjunctival cells and the ILG of rabbits with DED. […] Cytokine levels were determined by ELISA and represent the average of a three samples. In FIG. 7B, IL-1β and IL-8 levels were determined by ELISA in the lacrimal glands of rabbits with Con A-induced DED that were treated with vehicle or PS for one week as previously. Gland tissue was homogenized and ELISA was performed on whole-tissue lysates. n=8 glands/group. Values=mean±SEM.
Cells were treated with PS 1×IC50 and 2 h later TNF-α was added to the medium to a final concentration of 10 ng/ml. Culture media were harvested 24 h later and the levels of TGF-β, IL-6 and IL-8 were determined by ELISA. Of note, the levels of IL-1 were below the limit of detection.

corneal sensitivity = assay: Corneal touch threshold (CTT) assay, Cochet-Bonnet aesthesiometer; type: in vivo, rabbits
Procedure: FIGS. 10A and 10B illustrate the ocular analgesic effect of PS. FIG. 10A: One drop of PS 0.5%, vehicle, or lidocaine was applied to one eye of rabbits (n=4/group) and the corneal touch threshold (CTT) was determined using an Eshesiometer. Vehicle had no effect on CTT (not shown; overlaps with the 0 value horizontal line). Values=mean±SEM. FIG. 10B: PS 0.5% in formulations differing in pH as indicated produced different analgesic responses in rabbits. The areas under each curve (AUC), indicted in the figure, that quantify these responses vary by as much as >5 fold. Values are the average of 2; all were within 11% of each other.
FIGS. 11A and 11B illustrates the effect of various concentrations of PS on corneal sensitivity determined by the corneal touch threshold (CTT) assay. The CTT score is expressed as length of filament. Measurements were performed at the indicated time points after a single application of PS as an eye drop. Rabbits with normal or dry eyes were studied (n=6 eyes per group). Dry eyes were induced by Concanavalin A injection as described in the text. The % PS content in each study is shown. The numbers in parentheses indicate the corresponding value of the area under the curve. Values=mean±SEM.
FIGS. 12A and 12B illustrate the effect of various drugs on corneal sensitivity determined by the corneal touch threshold (CTT) assay described herein. Each drug was used in its commercially available form; one eye drop of each was applied. The numbers in parentheses indicate the corresponding value of the area under the curve. Values=mean±SEM.
The analgesic effect of PS was examined on the surface of the eye by determining the corneal touch threshold (CTT) using the Luneau Cochet-Bonnet Aesthesiometer (Western Ophthalmics, Lynwood, Wash.) an adjustable nylon monofilament with a defined diameter, which is applied in different lengths to the center of the cornea.
In this embodiment, the composition of the PS preparation was: 0.5% PS, 18% (2-hydroxypropyl)-β-cyclodextrin (HP-β-CD), 1-4% Tween 80. Preparation Method: HP-β-CD was dissolved in purified water maintained in a 50° C. water bath. PS was added into this solution and kept at 50° C. overnight with stirring at 500 rpm until PS was fully dissolved. Tween 80 was added into the PS HP-β-CD solution, which was then centrifuged at 3000 rpm for 10 min to remove undissolved particles. The supernatant was collected and pH was adjusted to the desired value using a NaOH solution. The analgesic effect of PS was examined as above.
The effect of PS and other compounds on corneal sensitivity was determined in rabbits with normal or dry eyes using the CTT assay as above; DED was induced by Concanavalin A as previously described. The CTT score, expressed as filament length in mm, of normal eyes was 5.56±0.11 mm (mean±SEM for this and subsequent values) and in dry eyes 4.17±0.12 mm; the difference between the two is statistically significant (p<0.0001).

[1] = Biodistribution of PS in human cadaveric eyes (ex vivo), PS nanoparticle solution; type: in vitro ADME; details: human eye ex vivo
Procedure: Human cadaveric eyes were obtained through the Lions Eye Bank for Long Island, Valley Stream, N.Y. They were preserved on ice and used within 2 h from removal from the donors.
The anterior surface of the human eye (corresponding to an area slightly larger than the palpebral fissure) was brought into direct contact with a PS nanoparticle (NP) solution (PS concentrations were 0.2%, 1% and 2%) and treated as above for the solution formulations of PS. […]

[2] = Corneal levels of a PS 0.2% solution formulation after single topical application; type: in vivo; details: cornea, topical or ocular, 0.2 % PS solution (single application, volume not stated), mean ± SEM
Procedure: Another embodiment of this type of formulation is: 0.1% PS, 10% HP-β-CD, 4% Tween 80, 2.5% Vitamin E TPGS, 1.4% polyvinyl alcohol (PVA) (13,000-26,000 molecular weight), 0.001% polyquad. Another embodiment of this type of formulation is: 0.2% PS; 10% HP-β-CD; 4% Tween 80; 2.5% Vitamin E TPGS; 1.4% polyvinyl alcohol (PVA) (13,000-26,000 molecular weight); and 0.001% polyquad. Preparation method: PVA was dissolved into water by stirring at 95° C. for 6 h. All ingredients including the PVA solution and PS were added into a glass vial, stirred at 50° C. (in a water bath) for 4 h, and then stirred at RT overnight. The pH was adjusted to 7.4±0.2 with NaOH and the osmolarity to 280-320 mOsm with NaCl 18%. For a sterile final product, this solution was filtered through a […] film.
The corneal levels of a PS 0.2% formulation were determined after its single topical application to the surface of the eye.

With CCOP(=O)(OCC)OCCCCOC(=O)CC1=C(C)/C(=C/c2ccc([S+](C)[O-])cc2)c2ccc(F)cc21 (stereo not drawn) [PS, phosphosulindac] the “reduction of TNF-α-stimulated TGF-β levels” value (TGF-β; PS 1×IC50, TNF-α 10 ng/ml, 24 h) was 19%, the “reduction of unstimulated TGF-β levels” value (TGF-β; PS 1×IC50, not statistically significant) was 4.7% and the “effect on corneal sensitivity (CTT), dry eyes” value (“effect … dry eyes” for short) (corneal sensitivity; 0.05% PS) was “ineffective”. For the same molecule, the “effect … dry eyes” value (corneal sensitivity; 0.2% and 1.6% PS) was “essentially equipotent”, the “effect … dry eyes” value (corneal sensitivity; Con A-induced dry eyes, single eye drop) was “restored the already suppressed ocular sensitivity” and the “variation of AUC of analgesic response between formulations differing in pH” value (corneal sensitivity; PS 0.5%, HP-β-CD formulation) was over 5 fold. For the same molecule, the “duration of response of corneal sensation” value (corneal sensitivity; dry eye) was “less than 100 min”, the “onset of response of corneal sensation” value (corneal sensitivity; dry eye) was at most 5 min and the “time at which values returned to baseline” value (corneal sensitivity; dry eyes) was 100 min. The “analgesic effect (CTT)” value (corneal sensitivity; naïve rabbits, single eye drop, PS 0.5%) was “essentially instantaneous and significant analgesia”, the “effect on corneal sensitivity (CTT), normal eyes” value (corneal sensitivity; single eye drop, various PS concentrations) was “dose-dependent analgesic effect” and the “PS in Cornea” value ([1]; 0.2% PS-NPs) was 22.8 µM. For the same molecule, the “PS in Iris” value ([1]; 0.2% PS-NPs) was 8.0 µM, the “PS in Lens” value ([1]; 0.2% PS-NPs) was 0.4 µM and the “PS in Retina” value ([1]; 0.2% PS-NPs) was 2.2 µM. The “PS in Sclera” value ([1]; 0.2% PS-NPs) was 30.7 µM, the “PS in Cornea” value ([1]; 1% PS-NPs) was 58.8 µM and the “PS in Iris” value ([1]; 1% PS-NPs) was 35.5 µM. The “PS in Lens” value ([1]; 1% PS-NPs) was 1.6 µM, the “PS in Retina” value ([1]; 1% PS-NPs) was 4.8 µM and the “PS in Sclera” value ([1]; 1% PS-NPs) was 152.0 µM. The “PS in Cornea” value ([1]; 2% PS-NPs) was 92.7 µM, the “PS in Iris” value ([1]; 2% PS-NPs) was 17.4 µM and the “PS in Lens” value ([1]; 2% PS-NPs) was 0.6 µM. For the same molecule, the “PS in Retina” value ([1]; 2% PS-NPs) was 1.2 µM, the “PS in Sclera” value ([1]; 2% PS-NPs) was 113.0 µM and the Cmax [2] was 63.4 ± 10 µM. The AUC(0-t) ([2]; read-out: AUC0-t, Cornea) was 62.6 ± 10.2 µM·h, the MRT inf ([2]; read-out: MRT0-inf—obs, Cornea) was 60 ± 6 min and the half-life ([2]; read-out: t1/2, Cornea (converted)) was 42 ± 12 min.
